From patent publication US8969572B2, “Process for preparing tetrazole-substituted anthranilamide derivatives and novel crystal polymorphs of these derivatives” (Bayer Cropscience AG, priority 2010, dated 2015)

Tests used:
[1] = cited from earlier work
[2] = thermodynamic stability of the crystal polymorph; type: physicochemical
Source text: The compound of the formula (I-1) is known from WO2010/069502. To date, only one crystal form of the compound 1-(3-chloropyridin-2-yl)-N-[4-cyano-2-methyl-6-(methylcarbamoyl)phenyl]-3-{[5-(trifluoromethyl)-2H-tetrazol-2-yl]methyl}-1H-pyrazole-5-carboxamide of the formula (I-1) was known, which is referred to hereinafter as polymorph A. Polymorph A has a characteristic x-ray powder diffractogram, Raman spectrum and IR spectrum (Tab. 1-2, FIGS. 2, 3, 5).

Row | Structure (SMILES) | pKa [1] | thermodynamic stability of crystal polymorph [2]
1 | FC(F)(F)c1nnn[nH]1 [5-Trifluoromethyltetrazole] | 1.14 | 
2 | CNC(=O)c1cc(C#N)cc(C)c1NC(=O)c1cc(Cn2nnc(C(F)(F)F)n2)nn1-c1ncccc1Cl [Polymorph A, 1-(3-chloropyridin-2-yl)-N-[4-cyano-2-methyl-6-(methylcarbamoyl)phenyl]-3-{[5-(trifluoromethyl)-2H-tetrazol-2-yl]methyl}-1H-pyrazole-5-carboxamide] |  | thermodynamically metastable
